Literature values, collected in PubChem BioAssay AID1259409 (Chemical Carcinogenesis Research Information System (CCRIS), 2018).

Test system: rodent chemically induced tumor inhibition, incidence and multiplicity
Experiment: CCRIS tumor inhibitor studies
Settings: for outcome: Carcinogen: SUBCUTANEOUS, Dose [Inhibitor]: 1,2-DIMETHYLHYDRAZINE, 540-73-8, Route [Inhibitor]: 0, 20 UG/ML IN DRINKING WATER 14 HR/D AT NIGHT TIME FOR 6 MO (STUDY DURATION: 6 MO), Dose [Carcinogen]: NONE

COc1ccc2[nH]cc(CCNC(C)=O)c2c1
tumour outcome (control, treated, inhibition, significance) (Carcinogen: N,N-DIETHYLNITROSAMINE [55-18-5], Dose [Inhibitor]: 400 PPM IN DIET, BEGINNING 1 WK AFTER FINAL CARCINOGEN DOSE, FOR STUDY DURATION (STUDY DURATION: 24 WK), Route [Inhibitor]: ORAL, Species: RAT, Strain/Sex: F344/MALE, Target Tissue: Type of Lesion: LIVER: HEPATOCELLULAR ADENOMA AND CARCINOMA, Dose [Carcinogen]: 100 MG/KG BW, 1/WK FOR 3 WK, Promoter: PHENOBARBITAL [50-06-6]): 24/24 (100%), 15/23 (65%), 35%, p<0.002
tumour outcome (control, treated, inhibition, significance) (Carcinogen: N,N-DIETHYLNITROSAMINE [55-18-5], Dose [Inhibitor]: 400 PPM IN DIET, BEGINNING 1 WK AFTER FINAL CARCINOGEN DOSE, FOR STUDY DURATION (STUDY DURATION: 24 WK), Route [Inhibitor]: ORAL, Species: RAT, Strain/Sex: F344/MALE, Target Tissue: Type of Lesion: LIVER: HEPATOCELLULAR ADENOMA, Dose [Carcinogen]: 100 MG/KG BW, 1/WK FOR 3 WK, Promoter: PHENOBARBITAL [50-06-6]): 24/24 (100%), 9/23 (39%), 61%, p<0.001
tumour outcome (control, treated, inhibition, significance) (Carcinogen: N-METHYL-N-NITROSOUREA [684-93-5], Dose [Inhibitor]: 0, 20 MG/L IN DRINKING WATER 15 HR/D FOR 3 D BEGINNING 2 D PRIOR TO CARCINOGEN DOSE (STUDY DURATION: LIFETIME), Route [Inhibitor]: ORAL, Species: RAT, Strain/Sex: LIO/FEMALE, Target Tissue: Type of Lesion: TUMORS, Dose [Carcinogen]: 50 MG/KG BW ONCE (STUDY DURATION: LIFETIME), Promoter: NONE): 12/24 (50%), 8/23 (34.8%), 30.4%, not significant
tumour outcome (control, treated, inhibition, significance) (Carcinogen: N-METHYL-N-NITROSOUREA [684-93-5], Dose [Inhibitor]: 8.2 MG IN 20 µL OIL CONCENTRATE BY PIPET AT THE BASE OF THE TONGUE 1X/D FOR 20 WK BEGINNING 11 D POST FIRST CARCINOGEN D, Route [Inhibitor]: ORAL, Species: RAT, Strain/Sex: SPRAGUE-DAWLEY/FEMALE, Target Tissue: Type of Lesion: MAMMARY GLAND: TUMOR, Dose [Carcinogen]: 50 MG/KG BW 1X/WK FOR 2 WK (STUDY DURATION: 22 WK), Promoter: NONE): 88%, 80%, 9%, not significant
tumour outcome (control, treated, inhibition, significance) (Carcinogen: N-METHYL-N-NITROSOUREA [684-93-5], Dose [Inhibitor]: 20 UG/ML IN DRINKING WATER 17 HR/D FOR 20 WK BEGINNING 12 D POST FIRST CARCINOGEN DOSE (STUDY DURATION: 22 WK), Route [Inhibitor]: ORAL, Species: RAT, Strain/Sex: SPRAGUE-DAWLEY/FEMALE, Target Tissue: Type of Lesion: MAMMARY GLAND: TUMOR, Dose [Carcinogen]: 50 MG/KG BW 1X/WK FOR 2 WK (STUDY DURATION: 22 WK), Promoter: NONE): 88%, 61%, 31%, not significant
tumour outcome (control, treated, inhibition, significance) (Carcinogen: N-METHYL-N-NITROSOUREA [684-93-5], Dose [Inhibitor]: 20 UG/ML IN DRINKING WATER, 17 HR/D BEGINNING 5 D BEFORE FIRST CARCINOGEN DOSE FOR 27 WK (STUDY DURATION: 27 WK), Route [Inhibitor]: ORAL, Species: RAT, Strain/Sex: SPRAGUE-DAWLEY/FEMALE, Target Tissue: Type of Lesion: MAMMARY GLAND: TUMOR, Dose [Carcinogen]: 50 MG/KG BW TWICE ON POSTNATAL DAYS 51 AND 58): 17/18 (94%), 14/19 (73.7%), 22%, not significant
tumour outcome (control, treated, inhibition, significance) (Carcinogen: N-METHYL-N-NITROSOUREA, 684-93-5, Dose [Inhibitor]: 0, 4 UG/ML IN DRINKING WATER 17 HR/D STARTING BEFORE CARCINOGEN TREATMENT FOR THE DURATION OF THE STUDY (STUDY DURATION:, Route [Inhibitor]: SUBCUTANEOUSLY, Species: RAT, Strain/Sex: SPRAGUE-DAWLEY/FEMALE, Target Tissue: Type of Lesion: MAMMARY GLAND: TUMOR, Dose [Carcinogen]: 50 MG/KG BW 2/WK FOR 1 WK BW 43-54 POSTNATAL DAYS): 80%, 65%, 19%, not significant
tumour outcome (control, treated, inhibition, significance) (Carcinogen: N-METHYL-N-NITROSOUREA, 684-93-5, Dose [Inhibitor]: 0, 20 UG/ML IN DRINKING WATER FOR 17 HR/D FOR THE DURATION OF STUDY (STUDY DURATION: 180 D), Route [Inhibitor]: ORAL, Species: RAT, Strain/Sex: SPRAGUE-DAWLEY/FEMALE, Target Tissue: Type of Lesion: MAMMARY GLAND: TUMOR, Dose [Carcinogen]: 50 MG/G BW ONCE/WK FOR 2 WK BEGINNING 12 D POST INHIBITOR TREATMENT, Promoter: NONE): 16/20 (80%), 9/16 (56.3%), 30%, not significant
tumour outcome (control, treated, inhibition, significance) (Carcinogen: NONE USED, Dose [Inhibitor]: 0, 25 UG/MOUSE/D IN DRINKING WATER FROM DAYS 21-45 OF AGE THEN 50 UG/D FOR DURATION OF STUDY (STUDY DURATION: 12 MO), Route [Inhibitor]: ORAL, Species: MOUSE, Strain/Sex: C3H/JAX/FEMALE, Target Tissue: Type of Lesion: MAMMARY GLAND: ADENOCARCINOMA): 10/16 (63%), 9/39 (23%), 63%, p<0.02
outcome (Species: RAT, Strain/Sex: LIO/FEMALE, Target Tissue: Type of Lesion: 7/21 (33%), 4/21 (19%), 42%, NOT SIGNIFICANT): 0.4, 0.2, 50%, not significant
outcome (Species: RAT, Strain/Sex: LIO/FEMALE, Target Tissue: Type of Lesion: 12/21 (57%), 3/21 (4%), 93%, P<0.01): 0.8, 0.1, 88%, p<0.01
outcome (Species: RAT, Strain/Sex: LIO/FEMALE, Target Tissue: Type of Lesion: 20/21 (95%), 12/21 (57%), 40%, P<0.01): 2.8, 1.2, 57%, p<0.01
